Source: patent publication US4001218A, “Penicillins” (Bayer Aktiengesellschaft, priority 1972, dated 1977)

Experiments:
E. coli 14 [1] = type: cell-based; settings: E. coli 14; 24 hours, 37°C
E. coli A 261 = assay: MIC, test tube series dilution test, E. coli A 261; type: cell-based; settings: 24 hours, 37°C
E. coli C 165 = assay: MIC, test tube series dilution test, E. coli C 165; type: cell-based; settings: 24 hours, 37°C
E. coli 183/58 = assay: MIC, test tube series dilution test, E. coli 183/58; type: cell-based; settings: 24 hours, 37°C
Proteus morg. 932 = assay: MIC, test tube series dilution test, Proteus morg. 932; type: cell-based; settings: 24 hours, 37°C
Proteus vulg. 1017 = type: cell-based, Proteus vulgaris; settings: Proteus 1017; 24 hours, 37°C
Psdm. aerug. F 41 = assay: MIC, test tube series dilution test, Psdm. aerug. F 41; type: cell-based, Pseudomonas aeruginosa; settings: Psdm. aerug. F 41; 24 hours, 37°C
Psdm. aerug. Walter = assay: MIC, test tube series dilution test, Psdm. aerug. Walter; type: cell-based, Pseudomonas aeruginosa; settings: Psdm. aerug. Walter; 24 hours, 37°C
Klebsiella K 10 [2] = assay: MIC, test tube series dilution test, Klebsiella K 10; type: cell-based; settings: 24 hours, 37°C
Klebsiella 63 [3] = assay: MIC, test tube series dilution test, Klebsiella 63; type: cell-based; settings: Klebsiella 63; 24 hours, 37°C
Staph. aureus 1756 = assay: MIC, test tube series dilution test, Staph. aureus 1756; type: cell-based, Staphylococcus aureus; settings: Staph. aureus 1756; 24 hours, 37°C
Staph. aureus 133 = type: cell-based, Staphylococcus aureus; settings: Staph. aureus 133; 24 hours, 37°C
Enterococcus 9790 = assay: MIC, test tube series dilution test, Enterococcus 9790; type: cell-based; settings: 24 hours, 37°C
E. coli 14 [4] = assay: turbidity test at 100 μg/ml; type: cell-based; settings: 24 hours
E. Coli c165 = assay: turbidity test at 100 μg/ml; type: cell-based; settings: 24 hours
Proteus vulgaris 1017 = assay: turbidity test at 100 μg/ml; type: cell-based; settings: 24 hours
Klebsiella K 10 [5] = assay: turbidity test at 100 μg/ml; type: cell-based; settings: 24 hours
Klebsiella 63 [6] = assay: turbidity test at 100 μg/ml; type: cell-based; settings: 24 hours
Salmonella sp. = assay: turbidity test at 100 μg/ml; type: cell-based
Shigella sp. = assay: turbidity test at 100 μg/ml; type: cell-based
Enterobacter sp. = assay: turbidity test at 100 μg/ml; type: cell-based; settings: 24 hours
Serratia sp. = assay: turbidity test at 100 μg/ml; type: cell-based; settings: 24 hours
[7] = test system: Proteus, indole-negative, sp.; assay: turbidity test at 100 μg/ml; type: cell-based; settings: 24 hours
[8] = test system: Proteus, indole-positive, sp.; assay: turbidity test at 100 μg/ml; type: cell-based; settings: 24 hours
[9] = test system: Pasteurella pseudotuberculosis; type: cell-based; settings: 100 μg/ml, 24 hours
Brucella sp. = type: cell-based; settings: 100 μg/ml, 24 hours
Haemophilus influenzae = assay: turbidity test at 100 μg/ml; type: cell-based; settings: 24 hours
[10] = test system: Bordetella bronchiseptica; assay: turbidity test at 100 μg/ml; type: cell-based; settings: 24 hours
Bacteroides sp. = assay: turbidity test at 100 μg/ml; type: cell-based; settings: 24 hours
[11] = test system: Staphylococcus aureus 133; assay: turbidity test at 100 μg/ml; type: cell-based; settings: 24 hours
[12] = test system: Neisseria cartarrhalis sp.; assay: turbidity test at 100 μg/ml; type: cell-based; settings: 24 hours
[13] = test system: Diplococcus pneumoniae sp.; assay: turbidity test at 100 μg/ml; type: cell-based; settings: 24 hours
Streptococcus pyogenes W = assay: turbidity test at 100 μg/ml; type: cell-based; settings: 24 hours
Enterococcus sp. = assay: turbidity test at 100 μg/ml; type: cell-based; settings: 24 hours
Lactobacillus sp. = assay: turbidity test at 100 μg/ml; type: cell-based; settings: 24 hours
[14] = test system: Corynebacterium diphteriae gravis; assay: turbidity test at 100 μg/ml; type: cell-based; settings: 24 hours
[15] = test system: Corynebacterium pyogenes M; assay: turbidity test at 100 μg/ml; type: cell-based; settings: 24 hours
Clostridium botulinium = type: cell-based
Clostridium tetani = type: cell-based; settings: 100 μg/ml, 24 hours
Borrelia sp. = assay: turbidity test at 100 μg/ml; type: cell-based; settings: 24 hours
[16] = test system: Pseudomonas aeruginosa sp.; assay: turbidity test at 100 μg/ml; type: cell-based; settings: 24 hours
Aeromonas hydrophila sp. = assay: turbidity test at 100 μg/ml; type: cell-based; settings: 24 hours
Klebsiella 62 = assay: animal experiment, Klebsiella 62 infection; settings: s.c. 2 × 3000 Units per animal, experiment with Ex.1

CC1(C)S[C@@H]2[C@H](NC(=O)[C@H](NC(=O)c3ccc(NC(=O)C4CC4)cc3)c3ccccc3)C(=O)N2[C@H]1C(=O)O [Example 1, sodium D(-)-α-(4-cyclopropanecarbonylamino-benzoylamino)-benzylpenicillin]
64 U/ml: MIC (Klebsiella K 10 [2]) | MIC (Klebsiella 63 [3]) | MIC (Staph. aureus 1756)
16 U/ml: MIC (E. coli C 165) | MIC (E. coli 183/58) | MIC (Psdm. aerug. Walter)
50%: Surviving animals (Klebsiella 62; 3rd day after infection) | Surviving animals (Klebsiella 62; 5th day after infection)
100%: Surviving animals (Klebsiella 62; 1st day after infection) | Surviving animals (Klebsiella 62; 2nd day after infection)
< 1 U/ml: MIC (Staph. aureus 133)
32 U/ml: MIC (Psdm. aerug. F 41)
> 256 U/ml: MIC (E. coli A 261)
non-turbid: degree of turbidity (E. coli 14 [4]) | degree of turbidity (E. Coli c165) | degree of turbidity (Proteus vulgaris 1017) | degree of turbidity (Klebsiella K 10 [5]) | degree of turbidity (Klebsiella 63 [6]) | degree of turbidity (Salmonella sp.) | degree of turbidity (Shigella sp.) | degree of turbidity (Enterobacter sp.) | degree of turbidity (Serratia sp.) | degree of turbidity [7] | degree of turbidity [8] | degree of turbidity [9] | degree of turbidity (Brucella sp.) | degree of turbidity (Haemophilus influenzae) | degree of turbidity [10] | degree of turbidity (Bacteroides sp.) | degree of turbidity [11] | degree of turbidity [12] | degree of turbidity [13] | degree of turbidity (Streptococcus pyogenes W) | degree of turbidity (Enterococcus sp.) | degree of turbidity (Lactobacillus sp.) | degree of turbidity [14] | degree of turbidity [15] | degree of turbidity (Clostridium botulinium) | degree of turbidity (Clostridium tetani) | degree of turbidity (Borrelia sp.) | degree of turbidity [16] | degree of turbidity (Aeromonas hydrophila sp.)
< 32 U/ml: MIC (Proteus vulg. 1017)
4 U/ml: MIC (E. coli 14 [1])
~ 8 U/ml: MIC (Enterococcus 9790)
8 U/ml: MIC (Proteus morg. 932)
